Source: ChEMBL document CHEMBL1909046, “DrugMatrix in vitro pharmacology data”

Tests used:
[1] = target: T1, Cysteinyl leukotriene receptor 1 (Homo sapiens, UniProt Q9Y271); assay type: cell membranes, Membrane; conditions: cho-k1; further: in other assays of this panel Not Active means under 50% inhibition at 10 µM
T1 sequence (Q9Y271 whole entry): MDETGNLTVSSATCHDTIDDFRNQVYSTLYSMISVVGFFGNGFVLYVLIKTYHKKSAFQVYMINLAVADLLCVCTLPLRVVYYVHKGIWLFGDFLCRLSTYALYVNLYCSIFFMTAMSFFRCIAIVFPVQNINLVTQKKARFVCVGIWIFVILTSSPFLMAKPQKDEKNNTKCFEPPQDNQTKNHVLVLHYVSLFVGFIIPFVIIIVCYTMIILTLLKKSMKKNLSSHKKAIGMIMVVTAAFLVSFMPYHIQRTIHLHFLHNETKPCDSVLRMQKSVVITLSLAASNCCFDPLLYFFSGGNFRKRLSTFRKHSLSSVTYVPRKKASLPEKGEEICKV

[2] = DRUGMATRIX: Calcium Channel Type L, Phenylalkylamine radioligand binding (ligand: [3H] (-)-Desmethoxyverapamil (D-888)); assay type: cell membranes, Rattus norvegicus, Wistar, Brain, Membrane; conditions: Not Active = under 50% inhibition at 10 µM
Endothelin-1 receptor = target: T2, Endothelin-1 receptor (Homo sapiens, UniProt P25101); assay type: cell membranes, CHO-K1, Membrane; conditions: cho-k1; further: in other assays of this panel Not Active means under 50% inhibition at 10 µM
T2 sequence (P25101 whole entry): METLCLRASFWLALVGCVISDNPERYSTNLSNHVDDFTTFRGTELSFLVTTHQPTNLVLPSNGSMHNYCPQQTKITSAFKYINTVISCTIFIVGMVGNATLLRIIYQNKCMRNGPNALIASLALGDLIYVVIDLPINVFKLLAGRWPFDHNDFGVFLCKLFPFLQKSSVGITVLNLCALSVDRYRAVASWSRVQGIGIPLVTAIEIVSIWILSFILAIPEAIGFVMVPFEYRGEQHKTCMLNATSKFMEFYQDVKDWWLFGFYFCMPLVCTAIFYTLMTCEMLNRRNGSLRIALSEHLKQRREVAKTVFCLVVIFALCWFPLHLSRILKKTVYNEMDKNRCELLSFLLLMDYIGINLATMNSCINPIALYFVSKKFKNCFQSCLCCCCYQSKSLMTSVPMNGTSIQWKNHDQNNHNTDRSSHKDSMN

[3] = target: T3, 3-hydroxy-3-methylglutaryl-coenzyme A reductase (Homo sapiens, UniProt P04035); design: species or system Escherichia coli;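 further: enzyme inhibition assay of HMG-CoA reductase using radiolabeled [14C]HMG-CoA as substrate; in other assays of this panel Not Active means under 50% inhibition at 10 µM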
T3 sequence (P04035 whole entry): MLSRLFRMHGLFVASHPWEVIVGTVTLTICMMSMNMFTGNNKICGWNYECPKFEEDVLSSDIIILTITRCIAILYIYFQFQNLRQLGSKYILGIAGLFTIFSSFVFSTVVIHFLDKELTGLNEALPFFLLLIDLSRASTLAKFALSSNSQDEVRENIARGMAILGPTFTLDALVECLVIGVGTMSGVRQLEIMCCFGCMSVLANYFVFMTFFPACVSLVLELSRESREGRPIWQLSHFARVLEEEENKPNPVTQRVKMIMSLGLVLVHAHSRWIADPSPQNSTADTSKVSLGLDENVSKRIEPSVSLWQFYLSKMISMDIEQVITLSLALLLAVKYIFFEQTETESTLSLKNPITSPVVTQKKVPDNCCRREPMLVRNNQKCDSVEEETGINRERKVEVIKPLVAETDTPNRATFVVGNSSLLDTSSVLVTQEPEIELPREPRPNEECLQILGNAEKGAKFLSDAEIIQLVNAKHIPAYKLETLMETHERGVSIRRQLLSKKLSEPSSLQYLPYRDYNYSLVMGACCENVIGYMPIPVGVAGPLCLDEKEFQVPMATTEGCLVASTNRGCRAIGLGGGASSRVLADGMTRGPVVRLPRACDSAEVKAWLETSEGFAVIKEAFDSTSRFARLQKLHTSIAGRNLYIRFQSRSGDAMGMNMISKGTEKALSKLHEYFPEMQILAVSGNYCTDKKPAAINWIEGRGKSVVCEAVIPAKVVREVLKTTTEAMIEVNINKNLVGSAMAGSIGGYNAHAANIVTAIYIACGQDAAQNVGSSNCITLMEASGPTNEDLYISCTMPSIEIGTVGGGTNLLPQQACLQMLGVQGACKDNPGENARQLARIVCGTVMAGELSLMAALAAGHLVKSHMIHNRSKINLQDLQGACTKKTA

Caspase-1 = target: T4, Caspase-1 (Homo sapiens, UniProt P29466); design: species or system Escherichia coli;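 further: Caspase-1 enzyme inhibition assay with a peptide substrate; in other assays of this panel Not Active means under 50% inhibition at 10 µM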
T4 sequence (P29466 whole entry): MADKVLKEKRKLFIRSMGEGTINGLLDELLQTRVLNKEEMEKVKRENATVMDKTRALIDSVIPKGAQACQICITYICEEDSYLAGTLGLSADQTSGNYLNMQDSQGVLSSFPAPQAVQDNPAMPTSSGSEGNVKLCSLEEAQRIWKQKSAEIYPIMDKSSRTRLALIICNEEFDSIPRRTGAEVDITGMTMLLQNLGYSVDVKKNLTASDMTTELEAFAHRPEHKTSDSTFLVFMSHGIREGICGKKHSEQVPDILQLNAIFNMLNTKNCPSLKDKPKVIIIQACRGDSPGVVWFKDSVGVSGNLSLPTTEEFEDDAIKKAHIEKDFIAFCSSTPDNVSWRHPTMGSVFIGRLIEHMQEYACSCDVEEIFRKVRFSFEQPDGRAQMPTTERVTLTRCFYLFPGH

[4] = target: Sigma non-opioid intracellular receptor 1 (Homo sapiens, UniProt Q99720); test: DRUGMATRIX: Sigma1 radioligand binding (ligand: [3H] Haloperidol); assay type: cell membranes, Jurkat, Membrane; conditions: jurkat; Not Active = under 50% inhibition at 10 µM
[5] = DRUGMATRIX: Sodium/nucleoside co-transporter radioligand binding (ligand: nitrobenzylthioinosine); assay type: cell membranes, Cavia porcellus, Dunkin-Hartley, Cerebral cortex, Membrane; conditions: Not Active = under 50% inhibition at 10 µM

Chain of Sigma non-opioid intracellular receptor 1 (Q99720 whole entry): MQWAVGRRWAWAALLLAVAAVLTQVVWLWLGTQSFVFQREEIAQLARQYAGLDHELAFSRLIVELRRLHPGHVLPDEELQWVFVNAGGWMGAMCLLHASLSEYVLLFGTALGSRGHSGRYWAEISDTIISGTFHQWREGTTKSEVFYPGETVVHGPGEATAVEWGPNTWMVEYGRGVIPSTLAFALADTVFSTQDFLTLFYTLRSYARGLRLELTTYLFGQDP

SMILES | IC50 [1] | IC50 [2] | Ki [2] | IC50 (Endothelin-1 receptor) | IC50 [3] | IC50 (Caspase-1) | IC50 [4] | IC50 [5] | Ki [5] | Ki [1] | IC50 ([2]; read-out: IC50) | Ki ([2]; read-out: Ki)
NC(=O)N1c2ccccc2C=Cc2ccccc21 [CARBAMAZEPINE] | Not Active | Not Active | Not Active | Not Active | Not Active | Not Active | Not Active | Not Active | Not Active | – | – | –
Cc1c(N(C)CS(=O)(=O)[O-])c(=O)n(-c2ccccc2)n1C.[Na+] [DIPYRONE SODIUM] | Not Active | Not Active | Not Active | Not Active | Not Active | Not Active | Not Active | Not Active | Not Active | – | – | –
OCCN1CCN(CCCN2c3ccccc3Sc3ccc(Cl)cc32)CC1 [PERPHENAZINE] | Not Active | Not Active | Not Active | Not Active | Not Active | Not Active | Not Active | Not Active | Not Active | – | – | –
CC[C@]1(O)CC[C@H]2[C@@H]3CCC4=CCCC[C@@H]4[C@H]3CC[C@@]21C | Not Active | Not Active | Not Active | Not Active | Not Active | Not Active | Not Active | Not Active | Not Active | – | – | –
CCOC(=O)n1ccn(C)c1=S [CARBIMAZOLE] | Not Active | Not Active | Not Active | Not Active | Not Active | Not Active | Not Active | Not Active | Not Active | – | – | –
COc1ccc(Cc2nccc3cc(OC)c(OC)cc23)cc1OC [PAPAVERINE] | – | Not Active | Not Active | Not Active | Not Active | Not Active | Not Active | Not Active | Not Active | Not Active | – | –
C#C[C@]1(O)CC[C@H]2[C@@H]3CCc4cc(O)ccc4[C@H]3CC[C@@]21C [ETHINYL ESTRADIOL] | Not Active | – | – | Not Active | Not Active | Not Active | Not Active | Not Active | Not Active | – | 6.99 µM | 6.79 µM
C[C@H]([C@](O)(Cn1cncn1)c1ccc(F)cc1F)S(C)(=O)=O [GENACONAZOLE] | Not Active | Not Active | Not Active | Not Active | Not Active | Not Active | Not Active | Not Active | Not Active | – | – | –
CCOC(=O)C1=C(C)NC(C)=C(C(=O)OC)C1c1cccc(Cl)c1Cl (stereo not given) [FELODIPINE] | Not Active | Not Active | Not Active | Not Active | Not Active | Not Active | Not Active | Not Active | Not Active | – | – | –
CC(C)C[C@H]1C(=O)N2CCC[C@H]2[C@]2(O)O[C@](NC(=O)[C@@H]3C=C4c5cccc6[nH]c(Br)c(c56)C[C@H]4N(C)C3)(C(C)C)C(=O)N12 [BROMOCRIPTINE] | Not Active | Not Active | Not Active | Not Active | Not Active | Not Active | Not Active | Not Active | Not Active | – | – | –
